The values that follow come from patent US4059586A, “5-Alkoxy-2-alkyl-1,2,3,4-tetrahydroisoquinolene-8-carboxaldehyde and derivatives” (Marion Laboratories, Inc., priority 1976, dated 1977).

SMILES strings stand for the structures.

The nature of series [1]: ALD50 in mice (acute toxicity, i.p.). The note with it: mouse, in vivo, ip. As to the method:
(§1) 5-hydroxy-2-methyl-7,8-cyclopentano[h]-1,2,3,4-tetrahydroisoquinoline has an ALD50 in mice of 100-150 mg/kg i.p. When administered as the base at 50 mg/kg i.p. to hypertensive rats the following percent change in systolic blood pressure was observed: […]

In series [2] the test system is hypertensive rats. Kind of series: percent change in systolic blood pressure in hypertensive rats. The format is in vivo. As to conditions: base at 50 mg/kg i.p. How it is done:
as §1

In turn, `CN1CCc2c(O)cc3c(c2C1)CCC3` [5-hydroxy-2-methyl-7,8-cyclopentano[h]-1,2,3,4-tetrahydroisoquinoline] yielded an LD50 in series [1] of 100 to 150 mg/kg. In addition, the “percent change in systolic blood pressure” value in series [2] (1 hour) is -18.9%; in series [2] (2 hours), -13.6%; in series [2] (4 hours), -11.2%; in series [2] (24 hours), -4.7%.
